Measured values reported in patent publication US20240043386A1, “Modulators of the Cystic Fibrosis Transmembrane Conductance Regulator Protein and Methods of Use” (AbbVie Global Enterprises Ltd., priority 2021, published 2024).

Molecular target: T1, F508del/F508del CFTR (Homo sapiens, UniProt P13569, DEL508-508)
T1 construct: cells isolated from CF patients with the homozygous mutation; endogenous in cells; host or cells: primary human bronchial epithelial (hBE) cells from CF patients homozygous for F508del
T1 sequence (P13569 with tags, fused parts or gaps DEL508-508): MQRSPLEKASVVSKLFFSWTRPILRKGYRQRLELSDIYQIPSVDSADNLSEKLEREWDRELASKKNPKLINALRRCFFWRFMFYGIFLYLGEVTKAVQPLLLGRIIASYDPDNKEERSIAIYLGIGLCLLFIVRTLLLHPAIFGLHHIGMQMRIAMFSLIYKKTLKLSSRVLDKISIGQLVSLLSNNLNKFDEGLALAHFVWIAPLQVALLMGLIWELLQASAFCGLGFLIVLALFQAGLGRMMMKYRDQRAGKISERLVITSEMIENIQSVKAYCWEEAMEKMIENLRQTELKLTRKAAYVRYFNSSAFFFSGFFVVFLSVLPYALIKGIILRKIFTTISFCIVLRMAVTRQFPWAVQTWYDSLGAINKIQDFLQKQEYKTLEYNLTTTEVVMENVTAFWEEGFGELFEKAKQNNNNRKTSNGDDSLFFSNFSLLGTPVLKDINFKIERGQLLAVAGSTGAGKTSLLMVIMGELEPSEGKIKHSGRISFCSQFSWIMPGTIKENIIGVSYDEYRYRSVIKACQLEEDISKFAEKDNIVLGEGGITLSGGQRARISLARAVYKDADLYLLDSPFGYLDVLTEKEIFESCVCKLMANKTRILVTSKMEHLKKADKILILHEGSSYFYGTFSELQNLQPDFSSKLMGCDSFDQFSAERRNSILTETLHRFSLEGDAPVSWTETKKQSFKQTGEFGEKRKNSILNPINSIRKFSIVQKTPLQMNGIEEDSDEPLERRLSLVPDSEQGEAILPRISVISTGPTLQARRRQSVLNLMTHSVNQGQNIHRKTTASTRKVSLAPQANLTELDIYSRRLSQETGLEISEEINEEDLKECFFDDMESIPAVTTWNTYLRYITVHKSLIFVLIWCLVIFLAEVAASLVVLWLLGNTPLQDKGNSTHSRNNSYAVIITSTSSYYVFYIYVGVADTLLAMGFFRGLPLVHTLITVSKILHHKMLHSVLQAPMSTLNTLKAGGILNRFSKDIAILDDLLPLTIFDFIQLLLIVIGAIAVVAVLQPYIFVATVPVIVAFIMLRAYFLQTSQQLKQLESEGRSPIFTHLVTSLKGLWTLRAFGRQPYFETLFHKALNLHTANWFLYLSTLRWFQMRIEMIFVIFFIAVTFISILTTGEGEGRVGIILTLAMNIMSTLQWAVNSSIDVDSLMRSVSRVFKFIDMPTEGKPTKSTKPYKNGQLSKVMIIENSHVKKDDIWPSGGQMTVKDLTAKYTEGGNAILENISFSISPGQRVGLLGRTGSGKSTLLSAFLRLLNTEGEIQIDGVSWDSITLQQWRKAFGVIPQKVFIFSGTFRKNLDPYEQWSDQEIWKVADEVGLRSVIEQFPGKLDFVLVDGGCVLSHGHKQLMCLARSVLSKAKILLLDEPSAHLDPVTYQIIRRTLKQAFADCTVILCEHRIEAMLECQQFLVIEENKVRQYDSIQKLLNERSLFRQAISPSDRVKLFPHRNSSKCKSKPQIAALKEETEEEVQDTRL
Experiment: Trans-Epithelial Current Clamp (TECC) assay using primary human bronchial epithelial cells
Assay type: cell-based
Settings: for Emax (% Dual): maximum percent activity relative to positive control (co-corrector 0.15 μM + potentiator 0.45 μM = 100%), primary hBE cells F508del/F508del; for EC50: primary hBE cells homozygous F508del/F508del, test C2 corrector with co-corrector and potentiator, 18-24 hours at 37° C., equivalent CFTR current (IEQ)/AUC
Excerpt: A cell-based assay was developed using the primary human bronchial epithelial cells (hBE cells) with F508del/F508del CFTR and other mutations.
Primary human bronchial epithelial (hBE) cells from CFTR patients with homozygous F508del/F508del mutation were expanded from 1×10^6 to 250×10^6 cells (Neuberger, T et al., 2011, Methods Mol Biol 741:39-54). For this purpose, cells isolated from CF patients with the homozygous mutation, procured from the CF center tissue procurement and cell culture core at the Marsico Lung Institute at UNC (Randell), the Cystic Fibrosis translational research center at McGill University (University), and Rosalind Franklin University Medical School (RFUMS) were seeded onto 24 well Corning (Cat #3378) filter plates that were coated with 3T3 conditioned media and grown at an air-liquid interface for 35 days using an Ultroser® G supplemented differentiation media. All the primary human bronchial epithelial cells were collected in accordance with institutional review board approval protocols. Apical surface mucus was removed 72 hours before the experiment by incubating the apical surface of the cells for 30 minutes with 3 mM dithiothreitol (DTT) prepared in Dulbecco's phosphate buffered saline (DPBS) with Ca^2+ and Mg^2+. This was followed with aspiration of the mucus from the apical surface along with DPBS. The apical surface was re-washed with phosphate buffered saline (PBS) incubated for 30 minutes followed with aspiration. These hBE cells were then incubated with the desired concentrations of the test C2 corrector compounds along with co-corrector, 4-[(2R,4R)-4-({[1-(2,2-difluoro-1,3-benzodioxol-5-yl)cyclopropyl]carbonyl}amino)-7-(difluoromethoxy)-3,4-dihydro-2H-chromen-2-yl]benzoic acid and potentiator, (5-{3-amino-5-[4-(trifluoromethoxy)benzene-1-sulfonyl]pyridin-2-yl}-1,3,4-oxadiazol-2-yl)methanol, for 18-24 hours at 37° C., 5% CO2. The desired concentrations of the correctors and potentiator compounds were prepared from the 10 mM stocks in differentiation media and were always applied on the basolateral side of the epithelial cells. We also used an assay format where a fixed concentration of potentiator was added chronically along with the corrector compounds. This chronic treatment with the potentiator helped eliminate any interaction that might happen with CFTR modulators (correctors and potentiators) and thereby determined the true efficacy of the modulator combinations reflective of clinical relevance.
The assay uses a Transepithelial Current Clamp (TECC) (Vu, C B et al., 2017; J Med Chem 60:458-473) instrument that can measure the functionality of the mutated channel by measuring the equivalent CFTR current (IEQ) generated by the polarized primary epithelial cells. We used a TECC-24 with a 24-channel electrode manifold allowing for the simultaneous measurement of the transepithelial voltage, VT, and transepithelial resistance, RT, under current clamp conditions, from 24 filters using a 24 well Costar filter plate. The design of the filters in the 24 well filter plates was exactly the same as the design of an individual Transwell filter used in the classical Ussing Chamber with a surface area of 0.33 cm^2. Each measured VT values were corrected for the electrode offset potential measured using buffer alone in a separate plate, and each measured RT values were then corrected for the combined solution series and empty filter resistances. The corrected VT and RT values were then used to calculate the equivalent current, IEQ using Ohm's law (IEQ=VT/RT). The area under the curve (AUC) for the time period between the forskolin peak IEQ response and at the time of bumetanide addition was also calculated using a one-third trapezoid method, in addition to calculating the IEQ. The assay was run in a 24-well format and all 24-wells were measured at the same time point giving a higher throughput for this assay. […]

| Emax (% Dual) | EC50 | SMILES |
| --- | --- | --- |
| 246 % Dual | 7 nM | COc1ccc([C@H]2C[C@@]2(C(=O)NS(=O)(=O)c2cccc3nc(C)ccc23)c2cc(C)ccc2OC)c(OC)n1 (single isomer, unassigned) [Example 94] |
| 350 % Dual | 3.8 nM | COc1ccc(C)cc1[C@]1(C(=O)NS(=O)(=O)c2cccc3nc(C)ccc23)C[C@@H]1c1cnc(OC)c(OC)c1 [Example 104, (1S,2R)-2-(5,6-dimethoxypyridin-3-yl)-1-(2-methoxy-5-methylphenyl)-N-(2-methylquinoline-5-sulfonyl)cyclopropane-1-carboxamide] |

The next lines start with the compound.

| SMILES | Emax (% Dual) | EC50 |
| --- | --- | --- |
| COc1ccc(C)cc1[C@]1(C(=O)NS(=O)(=O)c2cccc3nc(C)ccc23)C[C@@H]1c1cnc(C(C)C)cn1 (single isomer, unassigned) [Example 64] | 342 % Dual | 33.7 nM |
| CCOc1cnc([C@H]2C[C@@]2(C(=O)NS(=O)(=O)c2cccc3nc(C)ccc23)c2cc(C)ccc2OC)cn1 (single isomer, unassigned) [Example 66] | 253 % Dual | 15.2 nM |
| CCOc1ncccc1[C@H]1C[C@@]1(C(=O)NS(=O)(=O)c1cccc2nc(C)ccc12)c1cc(C)ccc1OC (single isomer, unassigned) [Example 71] | 288 % Dual | 11.3 nM |
| COc1ccc(C)cc1[C@@]1(C(=O)NS(=O)(=O)c2cccc3nc(C)ccc23)CC1c1ccc(C)nc1 (stereo in doubt) [Example 10, (1R,2S)-1-(2-methoxy-5-methylphenyl)-2-(6-methylpyridin-3-yl)-N-(2-methylquinoline-5-sulfonyl)cyclopropane-1-carboxamide] | 194 % Dual | 804 nM |
| COc1ccc(C)cc1[C@]1(C(=O)NS(=O)(=O)c2cccc3nc(C)ccc23)C[C@@H]1c1cnc(OC)c(C)n1 [Example 83, (1S,2S)-1-(2-methoxy-5-methylphenyl)-2-(5-methoxy-6-methylpyrazin-2-yl)-N-(2-methylquinoline-5-sulfonyl)cyclopropane-1-carboxamide] | 246 % Dual | 33.2 nM |
